From ChEMBL document CHEMBL1201862, “PubChem BioAssay data set” (2004)
Active and inactive are the calls of the source.

What was measured:
Procathepsin L = Procathepsin L (Homo sapiens, UniProt P07711); test: CTSL1 protease inhibition – biochemical, QFRET, 1536-well, counter-screen for M1/M17 aminopeptidase inhibitor project, dose response (AID 2214)
Aspartyl aminopeptidase = molecular target: T1, Aspartyl aminopeptidase (Plasmodium falciparum 3D7, UniProt Q8I2J3); test: Counterscreen for inhibitors of M1 and M17 aminopeptidases: QFRET-based biochemical high throughput dose response assay for inhibitors of the Plasmodium falciparum M18 Aspartyl Aminopeptidase (PFM18AAP). [Related PubChem assays: 1619 (Screening assay (M17LAP inhibitors).), 1445 (Screening assay (M1AAP inhibitors).)]
T1 sequence (Q8I2J3 whole entry): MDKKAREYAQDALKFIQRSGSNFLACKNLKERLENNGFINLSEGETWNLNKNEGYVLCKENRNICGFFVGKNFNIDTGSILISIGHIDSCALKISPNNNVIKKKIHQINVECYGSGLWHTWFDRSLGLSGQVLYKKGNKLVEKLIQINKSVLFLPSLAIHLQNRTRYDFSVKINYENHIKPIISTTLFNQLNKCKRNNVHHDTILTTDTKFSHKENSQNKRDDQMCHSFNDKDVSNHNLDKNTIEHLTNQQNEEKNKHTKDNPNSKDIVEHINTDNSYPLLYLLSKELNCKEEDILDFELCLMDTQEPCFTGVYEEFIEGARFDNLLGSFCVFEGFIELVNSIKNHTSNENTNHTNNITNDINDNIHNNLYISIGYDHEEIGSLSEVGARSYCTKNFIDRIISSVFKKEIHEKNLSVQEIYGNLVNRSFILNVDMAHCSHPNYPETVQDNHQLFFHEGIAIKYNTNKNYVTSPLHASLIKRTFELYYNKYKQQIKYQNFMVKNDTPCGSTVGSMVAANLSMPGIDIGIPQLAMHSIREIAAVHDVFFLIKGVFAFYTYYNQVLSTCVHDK

Leucine aminopeptidase = molecular target: T2, Leucine aminopeptidase (Plasmodium falciparum 3D7, UniProt Q8IL11); test: P. falciparum M17LAP inhibitors, primary screen, biochemical, fluorogenic H-Leu-NHMec substrate, 1536-well (AID 1619); assay type: functional
T2 sequence (Q8IL11 whole entry): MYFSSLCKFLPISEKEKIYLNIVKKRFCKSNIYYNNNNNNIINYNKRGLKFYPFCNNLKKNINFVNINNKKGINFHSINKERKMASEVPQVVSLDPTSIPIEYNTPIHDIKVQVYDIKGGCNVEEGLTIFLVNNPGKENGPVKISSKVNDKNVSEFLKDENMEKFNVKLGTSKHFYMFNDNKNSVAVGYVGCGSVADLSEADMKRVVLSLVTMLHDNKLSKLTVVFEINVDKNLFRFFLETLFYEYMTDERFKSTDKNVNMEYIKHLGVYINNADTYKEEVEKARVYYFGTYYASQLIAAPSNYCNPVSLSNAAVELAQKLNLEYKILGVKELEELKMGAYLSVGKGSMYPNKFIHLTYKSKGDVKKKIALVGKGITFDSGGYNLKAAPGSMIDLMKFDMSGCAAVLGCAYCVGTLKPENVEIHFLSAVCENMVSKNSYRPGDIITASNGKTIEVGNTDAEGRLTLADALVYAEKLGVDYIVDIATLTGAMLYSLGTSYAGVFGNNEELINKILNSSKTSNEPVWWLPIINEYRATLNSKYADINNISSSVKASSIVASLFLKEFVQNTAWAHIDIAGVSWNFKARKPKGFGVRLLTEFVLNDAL

[1] = A cytotoxicity screen of small molecule inhibitors of the PhoP region in Salmonella typhi identified in the primary screen. [Related pubchem assays: 1850, 1864, 1985 ]; assay type: functional
[2] = molecular target: Glyceraldehyde-3-phosphate dehydrogenase (Homo sapiens, UniProt P04406)
[3] = molecular target: Alkaline phosphatase, placental type (Homo sapiens, UniProt P05187); test: human placental alkaline phosphatase inhibition – biochemical, luminescence, confirmation (AID 1512); assay type: functional
Protein RecA = molecular target: T3, Protein RecA (Mycobacterium tuberculosis, UniProt P9WHJ3); test: Fluorescence Cell-Free Homogeneous Dose Retest to Identify Inhibitors of RecA-Intein Splicing Activity. [Related pubchem assays (depositor defined):AID2097, AID2223, AID489010, AID492950]; assay type: functional
T3 sequence (P9WHJ3 whole entry): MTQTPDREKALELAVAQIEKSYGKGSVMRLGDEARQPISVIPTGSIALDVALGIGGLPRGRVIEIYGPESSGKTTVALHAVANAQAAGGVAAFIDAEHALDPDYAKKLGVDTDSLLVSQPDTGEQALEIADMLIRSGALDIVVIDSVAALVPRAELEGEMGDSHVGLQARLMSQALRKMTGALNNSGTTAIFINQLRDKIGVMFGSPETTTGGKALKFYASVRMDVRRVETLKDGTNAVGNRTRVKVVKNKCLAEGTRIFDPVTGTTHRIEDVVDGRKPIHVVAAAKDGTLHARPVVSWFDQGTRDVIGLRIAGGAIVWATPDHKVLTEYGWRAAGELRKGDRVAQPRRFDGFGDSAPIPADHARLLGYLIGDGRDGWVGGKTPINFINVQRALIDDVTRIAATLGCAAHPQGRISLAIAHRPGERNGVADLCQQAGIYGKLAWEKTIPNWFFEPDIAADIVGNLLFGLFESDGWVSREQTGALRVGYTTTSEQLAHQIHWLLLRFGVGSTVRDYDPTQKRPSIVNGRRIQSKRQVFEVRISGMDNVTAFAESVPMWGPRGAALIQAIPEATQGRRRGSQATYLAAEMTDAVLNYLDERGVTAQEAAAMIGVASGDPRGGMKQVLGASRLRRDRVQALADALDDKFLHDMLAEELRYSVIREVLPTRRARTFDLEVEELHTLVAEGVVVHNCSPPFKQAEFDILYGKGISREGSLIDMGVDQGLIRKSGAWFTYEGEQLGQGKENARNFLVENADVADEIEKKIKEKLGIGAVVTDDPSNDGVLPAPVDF

[4] = molecular target: T4, Alkaline phosphatase, tissue-nonspecific isozyme (Homo sapiens, UniProt P05186); test: potency against alkaline phosphatase TNAP – biochemical, luminescent, dose response, SAR follow-up (AID 1056)
T4 sequence (P05186 whole entry): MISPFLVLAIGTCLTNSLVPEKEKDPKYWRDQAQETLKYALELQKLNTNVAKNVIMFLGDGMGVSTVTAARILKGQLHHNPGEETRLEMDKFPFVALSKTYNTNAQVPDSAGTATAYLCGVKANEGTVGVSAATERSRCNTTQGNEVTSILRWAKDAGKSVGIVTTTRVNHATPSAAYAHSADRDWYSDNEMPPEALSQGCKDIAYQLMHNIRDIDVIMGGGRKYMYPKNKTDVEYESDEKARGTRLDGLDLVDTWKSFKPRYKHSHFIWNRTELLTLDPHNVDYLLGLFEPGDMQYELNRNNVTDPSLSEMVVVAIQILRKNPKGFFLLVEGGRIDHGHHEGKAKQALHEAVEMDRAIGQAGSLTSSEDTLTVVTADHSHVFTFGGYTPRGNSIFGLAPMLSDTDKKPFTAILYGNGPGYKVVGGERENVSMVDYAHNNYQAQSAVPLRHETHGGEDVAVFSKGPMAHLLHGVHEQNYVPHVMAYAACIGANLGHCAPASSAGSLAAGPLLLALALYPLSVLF

[5] = molecular target: T5, Replicative DNA helicase DnaB (Mycobacterium tuberculosis, UniProt P9WMR3); test: DnaB intein splicing inhibitors, dose response, biochemical, cell-free fluorescence (AID 449749); assay type: functional
T5 sequence (P9WMR3 whole entry): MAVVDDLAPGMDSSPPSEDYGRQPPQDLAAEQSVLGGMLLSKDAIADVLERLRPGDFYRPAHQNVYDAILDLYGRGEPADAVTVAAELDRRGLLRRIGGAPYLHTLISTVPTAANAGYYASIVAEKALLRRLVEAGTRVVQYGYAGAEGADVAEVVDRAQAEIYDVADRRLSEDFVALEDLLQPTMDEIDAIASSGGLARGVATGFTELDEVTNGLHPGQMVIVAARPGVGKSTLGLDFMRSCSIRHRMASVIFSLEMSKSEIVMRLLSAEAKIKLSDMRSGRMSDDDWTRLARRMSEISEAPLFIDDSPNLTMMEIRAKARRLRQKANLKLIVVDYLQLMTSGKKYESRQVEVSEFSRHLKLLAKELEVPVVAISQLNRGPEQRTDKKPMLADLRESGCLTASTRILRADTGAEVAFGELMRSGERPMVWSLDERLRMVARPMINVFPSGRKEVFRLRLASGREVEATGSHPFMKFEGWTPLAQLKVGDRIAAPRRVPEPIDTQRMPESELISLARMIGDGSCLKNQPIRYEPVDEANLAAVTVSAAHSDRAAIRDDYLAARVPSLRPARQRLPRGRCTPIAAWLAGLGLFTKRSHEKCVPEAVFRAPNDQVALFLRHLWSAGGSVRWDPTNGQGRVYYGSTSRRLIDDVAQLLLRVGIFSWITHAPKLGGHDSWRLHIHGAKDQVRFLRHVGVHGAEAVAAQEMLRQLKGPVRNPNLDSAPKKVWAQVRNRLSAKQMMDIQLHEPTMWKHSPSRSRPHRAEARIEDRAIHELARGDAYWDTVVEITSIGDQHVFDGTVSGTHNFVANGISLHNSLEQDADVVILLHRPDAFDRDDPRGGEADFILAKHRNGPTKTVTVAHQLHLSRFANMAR

Streptococcus = test: GAS UMAA2166 growth inhibition – luminescence, BacTiterGlo, counter-screen for streptokinase expression inhibitor project, dose response (AID 1915); assay type: functional, organism-based;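 further: potency for reduction of bacterial viability or growth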
[6] = test system: Streptococcus sp. 'group A'; test: Streptococcus pyogenes SK(-)GAS viability under kanamycin – luminescence, BacTiterGlo, confirmation, counter-screen for streptokinase expression inhibitor project, dose response (AID 1900); assay type: functional, organism-based
[7] = viability loss of HPDE-C7K cells – cell-based, fluorescence, HTS, primary screen (AID 431); assay type: functional; details: Homo sapiens
[8] = HPDE-C7 pancreatic duct cell viability loss – fluorescence, HTS (AID 430); assay type: functional, cell-based; details: Homo sapiens
[9] = fluconazole-exposed Candida albicans growth modulators – fluorescence, retest, confirmation (AID 2467); assay type: functional, cell-based
[10] = NIH-3T3 fibroblast cytotoxicity, dose response, cytotoxicity control, cell-based, fluorescence, Alamar Blue, secondary assay (AID 2327); assay type: functional;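 further: NIH-3T3 mouse fibroblasts cultured with fluconazole at 8 µg/mL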
cells = assay type: functional
Cytochrome P450 2D6 = Cytochrome P450 2D6 (Homo sapiens, UniProt P10635);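 further: CYP2D6 member of a cytochrome P450 panel assay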
Cytochrome P450 2C9 = Cytochrome P450 2C9 (Homo sapiens, UniProt P11712)
[11] = molecular target: Eukaryotic translation initiation factor 4H (Homo sapiens, UniProt Q15056); test: eIF4H binding inhibition – biochemical, uHTS, fluorescence polarization, translation initiation inhibitor project, primary screen (AID 2012)
Cytochrome P450 2C19 = Cytochrome P450 2C19 (Homo sapiens, UniProt P33261); test: Cytochrome panel assay with activity outcomes. Panel member name: p450-cyp2c19 Compounds with AC50 equal or less than 10 uM are considered active; assay type: functional; details: read-out: AC50
[12] = molecular target: Polyadenylate-binding protein 1 (Homo sapiens, UniProt P11940); test: blockers of PABP interaction with poly(A) – biochemical, fluorescence polarization, […] (AID 2014)
Cytochrome P450 3A4 = Cytochrome P450 3A4 (Homo sapiens, UniProt P08684); details: Potency;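 further: confirmatory qHTS run detecting inhibitors and substrates of CYP3A4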
Chain of Cytochrome P450 3A4 (P08684 whole entry): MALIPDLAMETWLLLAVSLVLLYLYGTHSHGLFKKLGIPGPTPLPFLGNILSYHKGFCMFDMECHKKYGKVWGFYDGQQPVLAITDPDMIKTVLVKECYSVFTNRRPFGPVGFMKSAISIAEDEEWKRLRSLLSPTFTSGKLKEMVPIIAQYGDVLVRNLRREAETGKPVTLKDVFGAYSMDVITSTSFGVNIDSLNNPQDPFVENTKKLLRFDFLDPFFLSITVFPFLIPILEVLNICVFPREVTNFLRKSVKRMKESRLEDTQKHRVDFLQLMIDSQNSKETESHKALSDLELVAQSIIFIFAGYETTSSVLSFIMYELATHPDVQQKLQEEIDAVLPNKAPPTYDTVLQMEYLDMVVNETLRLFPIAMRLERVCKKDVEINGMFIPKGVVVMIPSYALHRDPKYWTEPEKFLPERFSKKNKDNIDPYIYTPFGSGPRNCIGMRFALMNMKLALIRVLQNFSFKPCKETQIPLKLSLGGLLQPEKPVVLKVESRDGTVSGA

Chain of Procathepsin L (P07711 whole entry): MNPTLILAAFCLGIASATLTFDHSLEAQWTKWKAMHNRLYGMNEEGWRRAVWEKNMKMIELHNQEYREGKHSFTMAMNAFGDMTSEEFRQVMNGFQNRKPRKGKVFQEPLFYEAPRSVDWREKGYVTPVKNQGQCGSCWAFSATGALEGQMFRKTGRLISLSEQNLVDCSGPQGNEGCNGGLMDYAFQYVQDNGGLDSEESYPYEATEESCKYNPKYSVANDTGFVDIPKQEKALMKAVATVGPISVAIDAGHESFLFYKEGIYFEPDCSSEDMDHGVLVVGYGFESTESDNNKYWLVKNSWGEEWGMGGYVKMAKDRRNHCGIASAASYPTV
Chain of Cytochrome P450 2C9 (P11712 whole entry): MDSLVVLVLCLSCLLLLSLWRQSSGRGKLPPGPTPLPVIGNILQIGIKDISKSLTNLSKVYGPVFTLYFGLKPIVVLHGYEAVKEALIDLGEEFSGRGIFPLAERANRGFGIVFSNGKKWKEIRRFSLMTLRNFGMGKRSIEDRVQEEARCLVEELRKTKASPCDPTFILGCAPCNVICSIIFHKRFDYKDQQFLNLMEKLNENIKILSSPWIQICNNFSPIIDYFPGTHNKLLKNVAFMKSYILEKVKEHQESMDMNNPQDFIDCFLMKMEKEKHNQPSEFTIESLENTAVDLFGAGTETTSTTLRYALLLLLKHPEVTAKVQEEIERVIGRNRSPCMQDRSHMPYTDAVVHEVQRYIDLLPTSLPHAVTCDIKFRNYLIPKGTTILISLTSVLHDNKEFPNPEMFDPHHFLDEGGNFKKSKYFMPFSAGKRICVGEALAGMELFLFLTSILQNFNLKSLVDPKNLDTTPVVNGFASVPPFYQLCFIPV
Chain of Glyceraldehyde-3-phosphate dehydrogenase (P04406 whole entry): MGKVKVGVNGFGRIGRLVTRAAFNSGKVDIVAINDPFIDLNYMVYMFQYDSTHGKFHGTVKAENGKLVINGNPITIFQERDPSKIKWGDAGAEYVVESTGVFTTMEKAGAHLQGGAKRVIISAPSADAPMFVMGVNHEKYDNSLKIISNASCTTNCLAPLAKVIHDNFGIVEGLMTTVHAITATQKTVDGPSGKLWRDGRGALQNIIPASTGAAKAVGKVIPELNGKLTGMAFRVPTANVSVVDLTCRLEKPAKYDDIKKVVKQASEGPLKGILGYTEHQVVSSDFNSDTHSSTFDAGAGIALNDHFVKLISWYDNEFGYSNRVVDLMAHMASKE
Chain of Cytochrome P450 2C19 (P33261 whole entry): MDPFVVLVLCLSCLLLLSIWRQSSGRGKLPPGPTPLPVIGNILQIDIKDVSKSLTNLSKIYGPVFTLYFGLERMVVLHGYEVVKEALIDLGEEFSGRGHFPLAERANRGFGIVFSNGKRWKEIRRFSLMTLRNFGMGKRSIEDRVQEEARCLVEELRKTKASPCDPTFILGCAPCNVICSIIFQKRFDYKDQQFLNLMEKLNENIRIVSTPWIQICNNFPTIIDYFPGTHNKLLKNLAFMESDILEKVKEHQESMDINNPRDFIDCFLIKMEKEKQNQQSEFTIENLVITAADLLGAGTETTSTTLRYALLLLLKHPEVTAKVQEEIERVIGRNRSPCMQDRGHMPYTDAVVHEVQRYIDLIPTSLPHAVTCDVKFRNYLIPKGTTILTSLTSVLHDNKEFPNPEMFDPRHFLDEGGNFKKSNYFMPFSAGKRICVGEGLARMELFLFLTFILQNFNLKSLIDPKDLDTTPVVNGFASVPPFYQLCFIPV
Chain of Polyadenylate-binding protein 1 (P11940 whole entry): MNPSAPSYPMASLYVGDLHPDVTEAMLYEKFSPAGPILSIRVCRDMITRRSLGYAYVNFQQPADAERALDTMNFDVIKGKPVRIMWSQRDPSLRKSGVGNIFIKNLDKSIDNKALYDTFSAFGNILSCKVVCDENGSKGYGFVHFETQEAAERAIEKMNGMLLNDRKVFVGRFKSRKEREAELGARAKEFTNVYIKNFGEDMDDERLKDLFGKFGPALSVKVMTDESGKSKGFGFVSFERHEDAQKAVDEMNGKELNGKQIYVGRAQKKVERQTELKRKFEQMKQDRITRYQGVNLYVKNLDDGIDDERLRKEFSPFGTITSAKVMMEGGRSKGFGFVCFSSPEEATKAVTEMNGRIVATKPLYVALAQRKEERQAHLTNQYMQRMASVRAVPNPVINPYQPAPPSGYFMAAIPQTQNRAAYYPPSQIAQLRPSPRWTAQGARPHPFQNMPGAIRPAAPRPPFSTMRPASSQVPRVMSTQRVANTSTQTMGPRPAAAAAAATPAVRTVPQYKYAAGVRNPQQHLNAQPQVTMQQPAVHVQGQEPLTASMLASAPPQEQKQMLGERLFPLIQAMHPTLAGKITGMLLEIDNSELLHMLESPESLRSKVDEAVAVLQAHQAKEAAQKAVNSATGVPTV
Chain of Cytochrome P450 2D6 (P10635 whole entry): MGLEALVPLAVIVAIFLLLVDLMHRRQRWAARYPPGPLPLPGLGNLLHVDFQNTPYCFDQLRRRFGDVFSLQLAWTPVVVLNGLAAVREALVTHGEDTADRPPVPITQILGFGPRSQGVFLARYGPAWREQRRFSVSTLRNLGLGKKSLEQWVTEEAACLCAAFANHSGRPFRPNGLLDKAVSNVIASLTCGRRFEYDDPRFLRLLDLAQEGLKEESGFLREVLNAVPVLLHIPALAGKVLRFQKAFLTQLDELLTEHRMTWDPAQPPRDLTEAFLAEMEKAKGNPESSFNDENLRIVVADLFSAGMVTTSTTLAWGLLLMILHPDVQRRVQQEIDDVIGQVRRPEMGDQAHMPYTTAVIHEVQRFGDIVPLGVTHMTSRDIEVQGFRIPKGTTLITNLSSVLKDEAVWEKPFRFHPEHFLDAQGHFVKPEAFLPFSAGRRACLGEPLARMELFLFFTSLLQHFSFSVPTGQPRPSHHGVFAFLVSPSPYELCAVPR
Chain of Alkaline phosphatase, placental type (P05187 whole entry): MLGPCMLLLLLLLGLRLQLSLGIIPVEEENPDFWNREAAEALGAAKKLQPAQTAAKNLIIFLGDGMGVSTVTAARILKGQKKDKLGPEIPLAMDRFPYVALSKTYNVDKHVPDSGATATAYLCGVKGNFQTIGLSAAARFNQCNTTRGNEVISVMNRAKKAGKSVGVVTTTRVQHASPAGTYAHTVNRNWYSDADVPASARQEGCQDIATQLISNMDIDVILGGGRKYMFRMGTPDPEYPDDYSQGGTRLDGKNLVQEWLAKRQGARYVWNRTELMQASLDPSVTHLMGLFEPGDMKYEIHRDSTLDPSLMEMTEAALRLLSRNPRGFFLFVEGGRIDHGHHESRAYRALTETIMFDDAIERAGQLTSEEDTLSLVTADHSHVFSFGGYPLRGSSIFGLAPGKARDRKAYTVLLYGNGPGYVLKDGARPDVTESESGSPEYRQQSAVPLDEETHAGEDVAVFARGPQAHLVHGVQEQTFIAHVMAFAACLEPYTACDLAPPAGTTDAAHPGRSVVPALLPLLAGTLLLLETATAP

Compound: O=C(O)C1CC=CCC1C(=O)Nc1ccc(Oc2ccc(Cl)cc2)cc1 (stereo not given)
- IC50 (Procathepsin L): > 59.6 µM (not active)
- IC50 (Aspartyl aminopeptidase): > 73.5 µM (not active)
- IC50 (Leucine aminopeptidase): 1.02 µM (active)

Compound: O=C(CN1C2=NCCN2c2ccccc21)c1ccc2c(c1)OCO2
- EC50 [1]: > 50 µM (active)

Compound: O=C(O)CCCCCNC(=O)Nc1ccc2c(c1)OCCO2
- IC50 (Procathepsin L): > 59.6 µM (not active)
- IC50 (Aspartyl aminopeptidase): > 73.5 µM (not active)
- IC50 (Leucine aminopeptidase): 5.51 µM (active)

Compound: Oc1cc(-c2cccc3ccccc23)[nH]n1
- IC50 [2]: > 100 µM (not active)
- IC50 [3]: > 10 µM (inactive)
- IC50 (Procathepsin L): > 59.6 µM (not active)
- EC50 (Protein RecA): 0.834 µM (active)
- IC50 (Aspartyl aminopeptidase): > 73.5 µM (not active)
- IC50 [4]: 3.87 µM (active)
- IC50 (Leucine aminopeptidase): 2.9 µM (active)
- AC50 [5]: 2.39 µM (active)

Compound: N#Cc1c(NC(=O)CSc2n[nH]c(Cc3ccccc3)n2)oc(-c2ccccc2)c1-c1ccccc1
- EC50 (Streptococcus): 36.5 µM (active)
- EC50 [6]: 4.97 µM (active)
- EC50 [7]: 5.24 µM (active)
- EC50 [8]: 4.13 µM (active)

Compound: CCCCCCCC(=O)N/N=C/c1ccc([N+](=O)[O-])o1
- EC50 [9]: 2.88 µM (active)
- EC50 [1]: > 50 µM (active)
- EC50 [10]: > 160 µM (inactive)
- IC50 (cells): 2.63 µM (active)

Compound: CC1=C(C(=O)OCc2ccccc2)C(c2ccccc2)NC(=O)N1CCCCCC(=O)O (stereo not given)
- AC50 (Cytochrome P450 2D6): 39.8 µM (inconclusive)
- AC50 (Cytochrome P450 2C9): 25.1 µM (inconclusive)
- IC50 [11]: 78.5 µM (active)
- AC50 (Cytochrome P450 2C19): 39.8 µM (inconclusive)
- IC50 [12]: 29.9 µM (active)

Compound: Cc1cc(C)c(N)cc1C
- AC50 (Cytochrome P450 3A4): 39.8 µM (inconclusive)

Compound: O=c1c(-c2cc(O)c(O)c(O)c2)coc2cc(O)c(O)c(O)c12 [IRIGENOL]
- AC50 (Cytochrome P450 3A4): 25.1 µM (inconclusive)
